{"source": "paper PMC7374170", "about": "“TRIB3-EGFR interaction promotes lung cancer progression and defines a therapeutic target” (Nature Communications, 2020)", "system": "proteinase K", "assay": "Metabolic stability of peptide: proteinase K resistance", "type": "in vitro ADME", "conditions": "panel Fig.S6e", "procedure": "Metabolic stability of peptide\nThe sample solution consisted of 15 µl peptide solution (1 mM ) and 585 µl Tris-HCl (pH = 7.4) buffer. Pepsin solution (4,500 U ml-1, 8 µl) or proteinase K solution (4 ng ml-1, 8 µl) was added to the sample solution and incubated at 25℃ for indicated times. Peptide concentrations were […]\ndetected by Exactive™ Plus Orbitrap (Thermo Fisher Scientific, USA). […]", "data": [{"smiles": "CC[C@H](C)[C@H](NC(=O)[C@H](CCCNC(=N)N)NC(=O)[C@H](CC(C)C)NC(=O)[C@H](CC(C)C)NC(=O)[C@H](C)NC(=O)[C@H](CCC(N)=O)NC(=O)[C@@H](N)CC(N)=O)C(=O)N[C@@H](CC(C)C)C(=O)N[C@@H](CCCNC(=N)N)C(=O)N[C@@H](CCC(=O)O)C(=O)N[C@H](C(=O)N[C@@H](CCC(=O)O)C(=O)N[C@@H](Cc1ccccc1)C(=O)N[C@@H](CCCCN)C(=O)N[C@@H](CCCCN)C(=O)O)[C@@H](C)O", "note": "[JGZ]", "values": [{"measurement": "Fraction Intact (%)", "setting": "time 45 min, replicate 1", "value": 15.4158, "unit": "%"}, {"measurement": "Fraction Intact (%)", "setting": "time 45 min, replicate 2", "value": 19.3884, "unit": "%"}, {"measurement": "Fraction Intact (%)", "setting": "time 45 min, replicate 3", "value": 17.4109, "unit": "%"}, {"measurement": "Fraction Intact (%)", "setting": "time 90 min, replicate 1", "value": 4.517, "unit": "%"}, {"measurement": "Fraction Intact (%)", "setting": "time 90 min, replicate 2", "value": 5.842, "unit": "%"}, {"measurement": "Fraction Intact (%)", "setting": "time 90 min, replicate 3", "value": 5.149, "unit": "%"}, {"measurement": "Fraction Intact (%)", "setting": "time 135 min, replicate 1", "value": 1.978, "unit": "%"}, {"measurement": "Fraction Intact (%)", "setting": "time 135 min, replicate 2", "value": 2.87, "unit": "%"}, {"measurement": "Fraction Intact (%)", "setting": "time 135 min, replicate 3", "value": 2.235, "unit": "%"}, {"measurement": "Fraction Intact (%)", "setting": "time 180 min, replicate 1", "value": 0.9859, "unit": "%"}, {"measurement": "Fraction Intact (%)", "setting": "time 180 min, replicate 2", "value": 1.636, "unit": "%"}, {"measurement": "Fraction Intact (%)", "setting": "time 180 min, replicate 3", "value": 1.16, "unit": "%"}, {"measurement": "Fraction Intact (%)", "setting": "time 225 min, replicate 1", "value": 0.5923, "unit": "%"}, {"measurement": "Fraction Intact (%)", "setting": "time 225 min, replicate 2", "value": 0.9865, "unit": "%"}, {"measurement": "Fraction Intact (%)", "setting": "time 225 min, replicate 3", "value": 0.582, "unit": "%"}, {"measurement": "Fraction Intact (%)", "setting": "time 270 min, replicate 1", "value": 0.003342, "unit": "%"}, {"measurement": "Fraction Intact (%)", "setting": "time 270 min, replicate 2", "value": 0.3276, "unit": "%"}, {"measurement": "Fraction Intact (%)", "setting": "time 270 min, replicate 3", "value": 0.1279, "unit": "%"}, {"measurement": "Fraction Intact (%)", "setting": "time 360 min, replicate 1", "value": 0, "unit": "%"}, {"measurement": "Fraction Intact (%)", "setting": "time 360 min, replicate 2", "value": 0.07064, "unit": "%"}, {"measurement": "Fraction Intact (%)", "setting": "time 360 min, replicate 3", "value": 0.09951, "unit": "%"}, {"measurement": "Fraction Intact (%)", "setting": "time 450 min, replicate 1", "value": 0, "unit": "%"}, {"measurement": "Fraction Intact (%)", "setting": "time 450 min, replicate 2", "value": 0.04231, "unit": "%"}, {"measurement": "Fraction Intact (%)", "setting": "time 450 min, replicate 3", "value": 0.01388, "unit": "%"}, {"measurement": "Fraction Intact (%)", "setting": "time 540 min, replicate 1", "value": 0, "unit": "%"}, {"measurement": "Fraction Intact (%)", "setting": "time 540 min, replicate 2", "value": 0.01049, "unit": "%"}, {"measurement": "Fraction Intact (%)", "setting": "time 540 min, replicate 3", "value": 0.003119, "unit": "%"}]}]}
